The values that follow come from US10047105B2, “Gyrase inhibitors” (Merck Sharp & Dohme Corp., priority 2009, dated 2018).

For one experiment, the system named is S. aureus ATCC 13709. As to the kind of experiment: MIC, antibacterial potency, S. aureus. Type of experiment: cell-based.
The test system of another experiment is S. pneumoniae ATCC 51916. As to the kind of experiment: MIC, S. pneumoniae. The format is cell-based.
[1] abbreviates: S. pneumoniae (Spn52), in µg/mL.

Converted amounts (≈) assume the structure as drawn. A value given as a limit tells only on which side of the number the result lay.

As to `CCc1[nH]c2nc(Nc3cnc4c(c3)nnn4C(C)C)nc(N3CC(N)C3)c2c1Cl.O=C(O)C(F)(F)F.O=C(O)C(F)(F)F` [700,527], the MIC, SA in the experiment on S. aureus ATCC 13709 (S. aureus) is 16 µg/mL. This compound also showed an MIC Spn52 against S. pneumoniae ATCC 51916 (S. pneumoniae) of 8 µg/mL.
On the same counts, the results for `CCc1[nH]c2nc(Sc3cnc4nccnc4c3)nc(N3CC[C@H](O)C3)c2c1Cl` [700,427] are no more than 0.5 µg/mL and 1 µg/mL (≈ 2.34 µM).
On the same counts, the results for `CCc1[nH]c2nc(Sc3nc(C(=O)OC)cs3)nc(Cl)c2c1Cl` [700,320] are greater than 64 µg/mL and greater than 64 µg/mL.
`CCc1[nH]c2nc(Sc3cncnc3)nc(N3CC[C@@H](N)C3)c2c1Cl` [700,783] showed an MIC, SA with S. aureus ATCC 13709 (S. aureus) of 8 µg/mL (≈ 21.3 µM). In the experiment on S. pneumoniae ATCC 51916 (S. pneumoniae), this compound displayed an MIC Spn52 of 16 µg/mL (≈ 42.6 µM).
The matching figures for `CCc1[nH]c2nc(Sc3cnc4nccnc4c3)nc(N3CCC(N)CC3)c2c1Cl` [700,541]: 4 µg/mL (≈ 9.07 µM) and 4 µg/mL (≈ 9.07 µM).
On the same counts, the results for `CCOc1nc(Nc2cnc3c(c2)nnn3CC2CC2)nc2[nH]c(CC)c(Br)c12.O=C(O)C(F)(F)F` [700,476] are greater than 64 µg/mL and greater than 64 µg/mL.
The matching figures for `CCc1[nH]c2nc(Sc3ccc4nc[nH]c(=O)c4c3)nc(N3CC(N)C3)c2c1Cl.O=C(O)C(F)(F)F` [700,694]: 2 µg/mL and 8 µg/mL.
On to `CCOc1nc(Oc2ccc3ccncc3c2)nc2[nH]c(CC)c(Cl)c12.O=C(O)C(F)(F)F` [700,691], for which the MIC, SA with S. aureus ATCC 13709 (S. aureus) is greater than 64 µg/mL. Also, the MIC Spn52 against S. pneumoniae ATCC 51916 (S. pneumoniae) was greater than 64 µg/mL.
For `CCc1[nH]c2nc(Sc3nc(-c4nnn[nH]4)cs3)nc(N3CC(O)C3)c2c1Cl.Cl.Cl.Cl.Cl` [700,355], the MIC, SA against S. aureus ATCC 13709 (S. aureus) was greater than 64 µg/mL. The MIC Spn52 against S. pneumoniae ATCC 51916 (S. pneumoniae) was greater than 64 µg/mL.
For `CCc1[nH]c2nc(Sc3cccc(CC(=O)O)c3)nc(Cl)c2c1Br` [700,307], the MIC, SA in the experiment on S. aureus ATCC 13709 (S. aureus) is 4 µg/mL (≈ 9.37 µM). Moreover, the MIC Spn52 against S. pneumoniae ATCC 51916 (S. pneumoniae) worked out at 64 µg/mL (≈ 150 µM).
The matching figures for `CCc1[nH]c2nc(Sc3cnc4nccnc4c3)nc(N3CC(CN)C3)c2c1Cl` [700,463]: 2 µg/mL (≈ 4.68 µM) and 4 µg/mL (≈ 9.37 µM).
On the same counts, the results for `CCc1[nH]c2nc(Oc3cnc4c(cnn4C)c3)nc(Oc3cnc4c(cnn4C)c3)c2c1Cl` [700,614] are 2 µg/mL (≈ 4.2 µM) and 16 µg/mL (≈ 33.6 µM).
On the same counts, the results for `CCOc1nc(Sc2ncc3cccnc3n2)nc2[nH]c(CC)c(Cl)c12` [700,341] are greater than 64 µg/mL and greater than 64 µg/mL.
With `CCc1[nH]c2nc(Sc3cnc(N)nc3)nc(N3CC4CCNC4C3)c2c1Cl` (stereo not drawn) [700,803], in the experiment on S. aureus ATCC 13709 (S. aureus (SA), in µg/mL), the “MIC, SA” value was 8. For the same compound, the “MIC Spn52” value in the experiment with S. pneumoniae ATCC 51916 (setting [1]) stood at 16.
The matching figures for `CCc1[nH]c2nc(Sc3ccc4ccc(C(=O)O)nc4c3)nc(N3CC(CNC(=O)c4cn(C)nc4C(F)(F)F)C3)c2c1Cl` [700,805]: “<=0.5” and 2.
Consider `CCc1[nH]c2nc(Sc3cnc4nccnc4c3)nc(NCCN)c2c1Cl.O=C(O)C(F)(F)F` [700,509], for which, in the experiment on S. aureus ATCC 13709 (S. aureus), the MIC, SA worked out at 16 µg/mL. The MIC Spn52 in the experiment with S. pneumoniae ATCC 51916 (S. pneumoniae) worked out at 16 µg/mL.
Consider `CCc1[nH]c2nc(Sc3cnc4nccnc4c3)nc(NC[C@H](C)O)c2c1Cl` [700,457], for which, in the experiment on S. aureus ATCC 13709 (S. aureus), the MIC, SA was found to be 1 µg/mL (≈ 2.4 µM). For the same compound, the MIC Spn52 against S. pneumoniae ATCC 51916 (S. pneumoniae) was 2 µg/mL (≈ 4.81 µM).
On the same counts, the results for `CCc1[nH]c2nc(Nc3cnc4c(c3)nnn4C(C)C)nc(N3CC(O)C3)c2c1Br.O=C(O)C(F)(F)F` [700,482] are greater than 64 µg/mL and greater than 64 µg/mL.
On the same counts, the results for `CCc1[nH]c2nc(Sc3cnc(N4CCC4)c(C#N)c3)nc(N3CCC(N)C3)c2c1Cl` (stereo not drawn) [700,589] are 2 µg/mL (≈ 4.4 µM) and 8 µg/mL (≈ 17.6 µM).
As for `CCc1[nH]c2nc(Sc3cnc4cccnc4c3)nc(N3CCC(N)(C(=O)N[C@H]4CCOC4=O)C3)c2c1Cl` (stereo partly drawn) [700,888], the “MIC, SA” value in the experiment on S. aureus ATCC 13709 (S. aureus (SA), in µg/mL) is listed as greater than 64. For the same compound, the “MIC Spn52” value in the experiment on S. pneumoniae ATCC 51916 (setting [1]) is greater than 64.
Turning to `C=CCc1nc(Cc2cccnc2)nc2[nH]c(CC)c(Cl)c12` [700,584], in the experiment on S. aureus ATCC 13709 (S. aureus), the MIC, SA came to 8 µg/mL (≈ 25.6 µM). The same compound returned an MIC Spn52 in the experiment on S. pneumoniae ATCC 51916 (S. pneumoniae) of 32 µg/mL (≈ 102 µM).
The matching figures for `CCc1[nH]c2nc(Nc3cnc4c(c3)nnn4C(C)C)nc(N3CC(N)C3)c2c1Br.O=C(O)C(F)(F)F.O=C(O)C(F)(F)F` [700,484]: 4 µg/mL and 8 µg/mL.
On the same counts, the results for `CCOc1nc(Nc2nc(C(=O)O)cs2)nc2[nH]c(CC)c(Br)c12.O=C(O)C(F)(F)F` [700,350] are 32 µg/mL and 64 µg/mL.
The matching figures for `CCc1[nH]c2nc(Sc3cccnc3)nc(NC[C@H](C)O)c2c1Cl.O=C(O)C(F)(F)F` [700,273]: 4 µg/mL and 16 µg/mL.
In the case of `CCc1[nH]c2nc(Sc3cnc4cccnc4c3)nc(N3CC4CCNC4C3)c2c1Cl` (stereo not drawn) [700,801], in the experiment with S. aureus ATCC 13709 (S. aureus (SA), in µg/mL), the “MIC, SA” value is “<=0.5”. Further, in the experiment with S. pneumoniae ATCC 51916 (setting [1]), the “MIC Spn52” value is recorded as “<=0.5”.
On to `CCc1[nH]c2nc(Sc3cnc4nccnc4c3)nc(N3CC(CNS(C)(=O)=O)C3)c2c1Cl` [700,487], for which the MIC, SA in the experiment on S. aureus ATCC 13709 (S. aureus) is no more than 0.5 µg/mL. The same compound yielded an MIC Spn52 against S. pneumoniae ATCC 51916 (S. pneumoniae) of no more than 0.5 µg/mL.
For the compound `CCc1[nH]c2nc(Sc3ccc4c(N)nc(N)nc4c3)nc(N3CCC3)c2c1Cl.O=C(O)C(F)(F)F.O=C(O)C(F)(F)F` [700,480], in the experiment on S. aureus ATCC 13709 (S. aureus), the MIC, SA came out at 16 µg/mL. Moreover, in the experiment with S. pneumoniae ATCC 51916 (S. pneumoniae), the MIC Spn52 was greater than 64 µg/mL.
